Reference: patent publication US20220387370A1, “METHODS OF REDUCING NEUROLOGICAL DAMAGE IN WILSON DISEASE PATIENTS” (priority 2019, published 2022)
“Also recorded” adds a separate entry of the source. Where two headings read alike, the source gives them in different places.

What was measured:
[1] = test system: Atp7b^−/− rats; test: Chelator treatment of WD rats: copper in serum, urine and feces (ICP-OES); assay type: in vivo, rat
Method: Control Atp7b^+/- and WD Atp7b^-/- rats were fed ad libitum with normal chow (1314; 13.89 mg Cu/kg; Altromin Spezialfutter GmbH, […], Germany) and tap water. All rats were healthy at treatment start and presented no signs of acute liver damage (serum AST <200 U/L and serum bilirubin <0.5 mg/dl). […] Untreated Atp7b^+/- and Atp7b^-/- rats served as controls. Urine and feces were collected at 24-hour intervals for which rats were housed individually in metabolic cages for 4 days. After a two-day resting period off treatment in normal cages and group housing, rats were sacrificed for serum collection.

[2] = test system: HepG2, EA.hy926, U87MG and SHSY5Y cells; test: Cu-albumin cell toxicity, CellTiter-Glo, all investigated cell lines; assay type: cell-based, human
Method: (§1) SHSY5Y (human neuroblastoma), U87MG (human astrocytoma), EA.hy926 (human endothelium) and HepG2 (human hepatocellular carcinoma) cells were from ATCC (Wesel, Germany) and were cultured in Dulbecco's Modified Eagle Medium (DMEM) supplemented with 10% FCS (Biochrom, Berlin, Germany) and 1% antibiotic-antimycotic (Life Technologies, Carlsbad, USA). All cells were maintained at 37° C. in a humidified atmosphere with 5% CO2.

[3] = test system: HepG2 cells; test: Cu-albumin cell toxicity, CellTiter-Glo, HepG2; assay type: cell-based, human; conditions: HepG2, 750 μM chelator
Method: as §1

[4] = test system: EA.hy926 cells; test: Cu-albumin cell toxicity, CellTiter-Glo, EA.hy926; assay type: cell-based, human; conditions: EA.hy926, 750 μM chelator
Method: as §1

[5] = test system: HepG2, EA.hy926, U87MG and SHSY5Y cells; test: Toxicity of the chelator itself in a copper-free setting, CellTiter-Glo
Method: as §1

[6] = test system: HepG2, EA.hy926, U87MG and SHSY5Y cells; test: Cellular copper content (ICP-OES), all cell lines; assay type: cell-based, human; conditions: 750 μM copper, 250 μM albumin, 750 μM chelator, 24 h; vs Cu-albumin alone
Source text: (§2) Afterwards, cells were trypsinized and counted.

[7] = test system: EA.hy926 cells; test: Cellular copper content (ICP-OES), EA.hy926; assay type: cell-based, human; conditions: EA.hy926; 750 μM copper, 250 μM albumin, 750 μM chelator; vs Cu-albumin alone
Source text: as §2

[8] = test system: HepG2 cells; test: Cellular copper content (ICP-OES), HepG2; assay type: cell-based, human; conditions: 750 μM copper, 250 μM albumin, 750 μM chelator, vs Cu-albumin alone
Source text: as §2

[9] = test system: SHSY5Y cells; test: Cellular copper content (ICP-OES), SHSY5Y; assay type: cell-based, human; conditions: 750 μM copper, 250 μM albumin, 750 μM chelator, vs Cu-albumin alone
Source text: as §2

[10] = test system: EA.hy926 and U87MG cells; test: Electron microscopy of mitochondrial structure; assay type: cell-based, human; conditions: electron micrographs, co-treatment with chelator
Source text: Electron microscopy of cells was done as previously described ([…]., et al., Cell Mol Gastroenterol Hepatol, 2018. 7(3): p. 571-596) on a 1200EX electron microscope (JEOL, […], Japan) at 60 kv. Pictures were taken with a […] digital camera (Olympus, Hamburg, Germany) and processed by the iTEM software package (analySIS FIVE, Olympus, Hamburg, Germany).

[11] = test system: PBCEC monolayers; test: TEER and capacitance of PBCEC monolayers (endothelial blood-brain barrier model); assay type: cell-based, porcine
Source text: (§3) For transepithelial resistance (TEER) experiments (Srinivasan, B., et al., J Lab Autom, 2015. 20(2): p. 107-26), cryopreserved primary porcine brain capillary endothelial cells (PBCECs) were thawed and seeded either on rat tail collagen-coated 96-well plates for cytotoxicity testing using the Neutral red assay (Repetto, G., A. del Peso, and J. L. Zurita, Nat Protoc, 2008. 3(7): p. 1125-31) or Transwell® inserts (area: 1.12 cm^2, pore size: 0.4 μm: Corning, N.Y., USA) for barrier integrity studies. Cells were cultured for 48 hours in Earle's Medium 199 supplemented with 10% FCS, 50 U penicillin/mL, 50 μg/mL streptomycin, 100 μg/mL gentamycin and 0.7 mM I-glutamine and maintained at 37° C. in a humidified atmosphere with 5% CO2. […] TEER and capacitance values were continuously monitored over 48 h using a CellZscope device (nanoAnalytics, Münster, Germany). Only PBCEC monolayers with initial TEER values >600Ωcm^2 and capacitance values between 0.45 and 0.6 μF/cm^2 were used for permeability studies (Bornhorst, J., et al., J Biol Chem, 2012. 287(21): p. 17140-51). The barrier integrity was calculated by normalizing the TEER values to the respective start values.

[12] = test system: PBCEC monolayers; test: Copper in the basolateral compartment of the Transwell PBCEC model (ICP-MS/MS); assay type: cell-based, porcine; conditions: 250 μM copper and 83.3 μM albumin, 250 μM chelator, after 48 h
Source text: as §3

[13] = test system: tight junction protein claudin-5; test: Immunocytochemistry staining of claudin-5 in PBCEC monolayers; assay type: cell-based, porcine; conditions: 250 μM copper and 83.3 μM albumin, 250 μM chelator
Method: Total copper was determined by ICP-MS/MS as previously described (Kopp, J. F., et al., J Trace Elem Med Biol, 2019. 54: p. 221-225). For the immunocytochemical staining of tight junction proteins, confluent PBCECs cultivated on Transwell® membrane inserts were processed as previously described ([…]., et al., Archives of Toxicology 2018. 92(2): p. 823-832). Briefly, PBCECs were fixed with formaldehyde and permeabilized using Triton X-100. After blocking of unspecific binding sites by albumin, the cells were incubated with the either anti-claudin 5 or anti-ZO-1 antibody (Zytomed Systems GmbH, Berlin, Germany). Following a second blocking step, the cells were treated with an Alexa Fluor® 488 conjugated secondary antibody (Invitrogen, Molecular Probes Inc., Eugene, USA). Hoechst 33258 (Merck, Darmstadt, Germany) was used to stain cell nuclei. Subsequently, membranes were cut out of the inserts and mounted in Aqua Poly/Mount (Polysciences Inc., Washington, USA). After a solidification period of 24 hours, the samples were evaluated using a DM6 B fluorescence microscope by Leica Microsystems CMS GmbH (Wetzlar, Germany) in combination with the Leica Application Suite X.

[14] = test system: PBCEC monolayers; test: Electron microscopy of tight junctions of PBCECs; assay type: cell-based, porcine; conditions: copper-treated PBCECs, electron micrographs
Method: Electron microscopy of PBCECS grown on Transwell® inserts was performed as previously described (Ye, D., K. A. Dawson, and I. Lynch, Analyst, 2015. 140(1): p. 83-97) with minor modifications. Briefly, after fixation with 2.5% glutaraldehyde, cell monolayers were post-fixed with 1% osmium tetroxide for 30 min and dehydrated by ethanol.

[15] = test system: HepG2, EA.hy926, U87MG and SHSY5Y cells; conditions: 750 μM copper, 250 μM albumin, 750 μM chelator
Method: 2×10^4 cells were seeded into each well of a 96-well plate and incubated overnight. […] Cell toxicity was either determined by CellTiter-Glo® assay (Promega, Madison, USA) or Trypan blue exclusion test.
Afterwards, cells were trypsinized and counted. Cell viability was determined by Trypan blue exclusion test.

[16] = in vivo; cited from earlier work
[17] = test system: neurologic WD patients; conditions: cited from earlier work
[18] = unit inferred; read-out: Kd (copper affinity); cited from earlier work

With CC(C)(S)[C@@H](N)C(=O)O [DPA, (2S)-2-amino-3-methyl-3-sulfanylbutanoic acid, reference compound] the fecal copper excretion ([1]; during treatment) was “unchanged”, the urinary copper excretion ([1]; during treatment, urine collected over 24 h) was “significantly increased; also recorded: significant increase” and the serum copper levels ([1]; i.p. once daily for 4 consecutive days (ALXN1840 2.5 mg/kg bw, DPA 100 mg/kg bw), serum at sacrifice after resting period) was “elevated blood copper was not observed”. The “share of net copper intake found in the urine” value ([1]; upon DPA treatment, total net uptake 3.95 μmol/24 h) was 10%, the “copper found in the urine” value ([1]; upon DPA treatment, unpublished observation) was 0.4 μmol/24 h and the “CellTiterGlo-assessed cell viability / Cu-albumin toxicity” value ([2]; 750 μM chelator, 250 μM albumin, copper 250 to 2500 μM, 24 h) was “much less effective; also recorded: not significantly increased”. For the same molecule, the “CellTiterGlo-assessed cell viability / Cu-albumin toxicity” value ([2]; low dose of chelator (250 μM)) was “no effect on cell viability”, the “CellTiterGlo-assessed cell viability / Cu-albumin toxicity” value [3] was “modest rescuing effect” and the “CellTiterGlo-assessed cell viability / Cu-albumin toxicity” value [4] was “completely absent”. The non-toxic concentrations ([5]; copper-free setting) was “up to 2 mM”, the “CellTiterGlo-assessed cell viability with chelator alone” value ([5]; without external Cu-albumin addition) was “not observed” and the cellular copper content [6] was “in none of the cell lines a significant de-coppering was noted; also recorded: did not change the amount of copper uptake”. The cellular copper content [7] was “tendentiously lower copper content”, the cellular copper content [8] was “highly similar cellular copper contents” and the cellular copper content [9] was “tendentiously lower copper content”. The “Cu-albumin-induced alterations of mitochondrial structure” value [10] was “no/minor effect; also recorded: no positive effect”, the “transepithelial electrical resistance (TEER)” value ([11]; 250 μM copper and 83.3 μM albumin, 250 μM chelator, 48 h) was “not able to prevent the copper-induced TEER loss; also recorded: reduction of the TEER comparable to Cu-albumin treatment alone” and the capacitance values ([11]; Cu-albumin treatment in the absence or presence of chelator) was “unaffected”. The “copper in the basolateral compartment (copper influx)” value [12] was “could not be avoided”, the “claudin-5 staining pattern / copper-induced gap formation” value [13] was “could not prevent copper-induced gap formation; also recorded: did not prevent copper-induced gap formation” and the “loss of electron-dense protein complexes at the cell-cell borders” value [14] was “not protected and not”. The “Trypan blue-assessed cell viability / copper-related cell toxicity” value [15] was “could not be avoided”, the “blood peak after application” value [16] was 1 to 3 h and the “patients with dramatic symptom worsening” value ([17]; shortly upon treatment onset) was 19-52%. The neurological worsening ([17]; treated patients) was “frequently occur”.
In the case of [SH-].[SH-].[S]=[Mo]=[S] [TTM, tetrathiomolybdate], the neurological worsening ([17]; human, in vivo) is given as “hardly reported”.
For N[C@@H](Cc1c[nH]cn1)C(=O)O [histidine], the Kd [18] is given as about 1 nM.
